{
  "source": "ChEMBL document CHEMBL1201862",
  "about": "“PubChem BioAssay data set” (2004)",
  "test_in_all_cases": "inhibition of tumour cell growth, NCI panel, 48 h",
  "key": {"[1]": {"test_system": "786-0"}, "[2]": {"test_system": "A498"}, "[3]": {"test_system": "A549"}, "[4]": {"test_system": "ACHN"}, "[5]": {"test_system": "BT-549"}, "[6]": {"test_system": "CCRF-CEM"}, "[7]": {"test_system": "COLO 205"}, "[8]": {"test_system": "DU-145"}, "[9]": {"test_system": "EKVX"}, "[10]": {"test_system": "HCC 2998"}, "[11]": {"test_system": "HCT-116"}, "[12]": {"test_system": "HCT-15"}, "[13]": {"test_system": "HOP-62"}, "[14]": {"test_system": "HT-29"}, "[15]": {"test_system": "Hs-578T"}, "[16]": {"test_system": "IGROV-1"}, "[17]": {"test_system": "K562"}, "[18]": {"test_system": "KM12"}, "[19]": {"test_system": "M14"}, "[20]": {"test_system": "MCF7"}, "[21]": {"test_system": "MDA-MB-231"}, "[22]": {"test_system": "MDA-MB-435"}, "[23]": {"test_system": "MDA-N"}, "[24]": {"test_system": "MOLT-4"}, "[25]": {"test_system": "Malme-3M"}, "[26]": {"test_system": "NCI-H226"}, "[27]": {"test_system": "NCI-H23"}, "[28]": {"test_system": "NCI-H460"}, "[29]": {"test_system": "NCI-H522"}, "[30]": {"test_system": "NCI/ADR-RES"}, "[31]": {"test_system": "OVCAR-3"}, "[32]": {"test_system": "OVCAR-4"}, "[33]": {"test_system": "OVCAR-5"}, "[34]": {"test_system": "OVCAR-8"}, "[35]": {"test_system": "PC-3"}, "[36]": {"test_system": "RXF 393"}, "[37]": {"test_system": "SF-268"}, "[38]": {"test_system": "SF-295"}, "[39]": {"test_system": "SF-539"}, "[40]": {"test_system": "SK-MEL-2"}, "[41]": {"test_system": "SK-MEL-5"}, "[42]": {"test_system": "SK-OV-3"}, "[43]": {"test_system": "SN12C"}, "[44]": {"test_system": "SNB-19"}, "[45]": {"test_system": "SNB-75"}, "[46]": {"test_system": "SR"}, "[47]": {"test_system": "T47D"}, "[48]": {"test_system": "TK-10"}, "[49]": {"test_system": "U-251"}, "[50]": {"test_system": "UACC-257"}, "[51]": {"test_system": "UACC-62"}, "[52]": {"test_system": "UO-31"}},
  "note": "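Where inhibition never reached the appropriate level, the endpoint shown equals the highest concentration tested. Otherwise, values were interpolated linearly from a five-concentration, 48-hour dose response in 96-well plates. Abbreviation: GI50, concentration required for 50% inhibition of growth.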 The source made the active and inactive calls. Rule as the data show it: active = GI50 up to about 1.1 µM and inactive = higher.",
  "data": [
    {"smiles": "O=C(Cc1ccccc1)N/N=C1\\C(=O)Nc2ccccc21", "values": [
      {"measurement": "GI50", "setting": "[1]", "value": "80.5 µM (inactive)"},
      {"measurement": "GI50", "setting": "[2]", "value": "0.229 µM (active)"},
      {"measurement": "GI50", "setting": "[3]", "value": "> 100 µM (inactive)"},
      {"measurement": "GI50", "setting": "[4]", "value": "> 100 µM (inactive)"},
      {"measurement": "GI50", "setting": "[5]", "value": "> 100 µM (inactive)"},
      {"measurement": "GI50", "setting": "[6]", "value": "> 100 µM (inactive)"},
      {"measurement": "GI50", "setting": "[7]", "value": "> 100 µM (inactive)"},
      {"measurement": "GI50", "setting": "[8]", "value": "> 100 µM (inactive)"},
      {"measurement": "GI50", "setting": "[9]", "value": "72.1 µM (inactive)"},
      {"measurement": "GI50", "setting": "[10]", "value": "> 100 µM (inactive)"},
      {"measurement": "GI50", "setting": "[11]", "value": "> 100 µM (inactive)"},
      {"measurement": "GI50", "setting": "[12]", "value": 62.8, "unit": "µM"},
      {"measurement": "GI50", "setting": "[13]", "value": "> 100 µM (inactive)"},
      {"measurement": "GI50", "setting": "[14]", "value": "> 100 µM (inactive)"},
      {"measurement": "GI50", "setting": "[15]", "value": "65.3 µM (inactive)"},
      {"measurement": "GI50", "setting": "[16]", "value": "> 100 µM (inactive)"},
      {"measurement": "GI50", "setting": "[17]", "value": "> 100 µM (inactive)"},
      {"measurement": "GI50", "setting": "[18]", "value": "> 100 µM (inactive)"},
      {"measurement": "GI50", "setting": "[19]", "value": "> 100 µM (inactive)"},
      {"measurement": "GI50", "setting": "[20]", "value": "49.8 µM (inactive)"},
      {"measurement": "GI50", "setting": "[21]", "value": "18.8 µM (inactive)"},
      {"measurement": "GI50", "setting": "[22]", "value": "> 100 µM (inactive)"},
      {"measurement": "GI50", "setting": "[23]", "value": "> 100 µM (inactive)"},
      {"measurement": "GI50", "setting": "[24]", "value": "> 100 µM (inactive)"},
      {"measurement": "GI50", "setting": "[25]", "value": "> 100 µM (inactive)"},
      {"measurement": "GI50", "setting": "[26]", "value": "71.9 µM (inactive)"},
      {"measurement": "GI50", "setting": "[27]", "value": "95.5 µM (inactive)"},
      {"measurement": "GI50", "setting": "[28]", "value": "> 100 µM (inactive)"},
      {"measurement": "GI50", "setting": "[29]", "value": "48.1 µM (inactive)"},
      {"measurement": "GI50", "setting": "[30]", "value": "52.4 µM (inactive)"},
      {"measurement": "GI50", "setting": "[31]", "value": "> 100 µM (inactive)"},
      {"measurement": "GI50", "setting": "[32]", "value": "> 100 µM (inactive)"},
      {"measurement": "GI50", "setting": "[33]", "value": "> 100 µM (inactive)"},
      {"measurement": "GI50", "setting": "[34]", "value": "> 100 µM (inactive)"},
      {"measurement": "GI50", "setting": "[35]", "value": "70.5 µM (inactive)"},
      {"measurement": "GI50", "setting": "[36]", "value": "> 100 µM (inactive)"},
      {"measurement": "GI50", "setting": "[37]", "value": "31.6 µM (inactive)"},
      {"measurement": "GI50", "setting": "[38]", "value": "25.8 µM (inactive)"},
      {"measurement": "GI50", "setting": "[39]", "value": "23.1 µM (inactive)"},
      {"measurement": "GI50", "setting": "[40]", "value": "> 100 µM (inactive)"},
      {"measurement": "GI50", "setting": "[41]", "value": "95.9 µM (inactive)"},
      {"measurement": "GI50", "setting": "[42]", "value": "> 100 µM (inactive)"},
      {"measurement": "GI50", "setting": "[43]", "value": "48.5 µM (inactive)"},
      {"measurement": "GI50", "setting": "[44]", "value": "> 100 µM (inactive)"},
      {"measurement": "GI50", "setting": "[45]", "value": "37.2 µM (inactive)"},
      {"measurement": "GI50", "setting": "[46]", "value": "> 100 µM (inactive)"},
      {"measurement": "GI50", "setting": "[47]", "value": "63.2 µM (inactive)"},
      {"measurement": "GI50", "setting": "[48]", "value": "> 100 µM (inactive)"},
      {"measurement": "GI50", "setting": "[49]", "value": "61.1 µM (inactive)"},
      {"measurement": "GI50", "setting": "[50]", "value": "> 100 µM (inactive)"},
      {"measurement": "GI50", "setting": "[51]", "value": "> 100 µM (inactive)"},
      {"measurement": "GI50", "setting": "[52]", "value": "48.2 µM (inactive)"}
    ]}
  ]
}
